The text below walks through data of article PMC10148624, “Discovery of diarylpyrimidine derivatives bearing piperazine sulfonyl as potent HIV-1 nonnucleoside reverse transcriptase inhibitors” (Communications Chemistry, 2023).

Marks after values point to notes of the source that are not given here.

Details of data set [1]: method as in PMID 24008177. Particulars: cited from earlier work.
The next data set concerns HIV-1 Y188L. Nature of the data set: Anti-HIV-1 activity against Y188L mutant strain, MTT method in MT-4 cells. Format: cell-based. The conditions noted are these: Human immunodeficiency virus 1, MT4, read-out: EC50 Y188L. From the text:
(§1) According to the anti-HIV-1(WT) results, the promising compounds 18a(1–5), 18b(1–5) and 18c1 were chosen to further evaluate their inhibitory potency against the prevalent HIV-1 mutations, including L100I, K103N, Y181C, Y188L, E138K, and F227L/V106A. […]. page 20:
(§2) or mock-infected wells of the microtiter tray. Mock-infected cells were used to evaluate
(§3) supernatant was discarded.
(§4) Five days after infection,
(§5) 4 cells by 50%. […]
(Formazan colour is commonly taken as a measure of viable cells.)

Another data set deals with HIV-1 E138K. The data set is described as follows: microbe, parasite or virus in culture. Format: cell-based. The conditions noted are these: Human immunodeficiency virus 1, MT4, read-out: EC50 E138K. On the procedure: (§6) compounds were made directly in flat-bottomed 96-well microtiter trays by adding 100 μL medium to the 25 μL stock solution and transferring 25 μL of this solution to another well that contained 100 μL medium using a Biomek 3000 robot (Beckman Instruments, Fullerton, CA). Untreated control HIV- and mock-infected cell samples were included for each sample. HIV-1 WT strain (IIIB), HIV-1 drug-resistant strains including […]
(§7) (50% cell culture infectious dose) or culture medium was added to either the infected or mock-infected wells of the microtiter tray. Mock-infected cells were used to evaluate the effect of test compounds on uninfected cells in order to assess its cytotoxicity.
(§8) Exponentially growing MT-4 cells were centrifuged for 5 min at 1000 rpm and the supernatant was discarded.
(§9) 50 μL volumes were transferred to the microtiter tray wells. Five days after infection, the viability of mock- and HIV-infected cells was examined spectrophotometrically by […]
(§10) concentration of the test compound that reduced the viability of the mock-infected MT- […]

A further data set has as its system HIV-1 Y181C. Nature of the data set: Anti-HIV-1 activity against Y181C mutant strain, MTT method in MT-4 cells. Format: cell-based. Particulars: Human immunodeficiency virus 1, MT4, read-out: EC50 Y181C, MT-4 cells, MTT method, mean ± SD, n ≥ 4.
Excerpt: as §2, §3, §4, §5

A further data set addresses CYP2D6 (Homo sapiens, UniProt P10635). Nature of the data set: in vitro. On the procedure: Fig. S3 Decomposition of the binding free energy (per-residue) into contributions from electrostatic energy, vdw energy, polar solvation energy, and non-polar solvation energy. a K103N-18b1. b […]
Section 7. Water solubility measurements
Water solubility was measured in phosphate buffer at pH 7.0 by using an HPLC-UV method.17 Compounds were initially dissolved in DMSO at 10 mg/mL 10 μL of this stock solution was spiked into purified water (1 mL) with the final DMSO concentration being 1%. The mixture was ultrasonic for 2 h at room temperature and restored at room temperature overnight. The saturated solution was filtrated through a filter membrane (pore size = 0.22 μm) and transferred to other Eppendorf tubes for analysis by HPLC-UV. The sample was performed in triplicate. For quantification, a model LC-20AT HPLC-UV (SHIMADZU) system was used with an Inertsil ® ODS-SP-C18 column (150 mm × 4.6 mm, 5 μm) and MeOH/water as eluant. The flow rate was 1.0 mL/min, and injection volume was 20 μL. Aqueous concentration was determined by comparison of the peak area of the saturated solution with a standard curve plotted peak area versus known concentrations, which were prepared by solutions in MeOH at 200, […]
(§11) Section 8. CYP enzyme inhibition assay […]
Section 9. Pharmacokinetics studies […]
approval from the Animal Ethical and Welfare Committee (AEWC). Ten male […]
Blood samples (200 μL of blood
Briefly, 50 μL of plasma was […]
tube, which was centrifuged at 3000g for 10 min. The supernatant layer was collected […]
Standard curves for 18b1 in […]
with an internal standard to blank plasma. Then all samples were quantified with an […]

In a further data set the test system is HIV-1 F227L/V106A. The data set is described as follows: Anti-HIV-1 activity against F227L/V106A mutant strain, MTT method in MT-4 cells. It counts as cell-based. Particulars: Human immunodeficiency virus 1, MT4, read-out: EC50 F227L/V106A.
Excerpt: as §1, §2, §3, §4, §5

The test system of a further data set is HIV-1 K103N. Nature of the data set: Anti-HIV-1 activity against K103N mutant strain, MTT method in MT-4 cells. It counts as cell-based. The conditions noted are these: Human immunodeficiency virus 1, MT4, read-out: EC50 K103N.
Excerpt: as §1, §2, §3, §4, §5

A further data set concerns the target T1, WT HIV-1 RT (Human immunodeficiency virus type 1 group M subtype B, UniProt P04585).
T1 construct: purchased Roche
Nature of the data set: biochemical. On the procedure: Section 4. HIV-1 RT inhibition assays
A reverse transcriptase (RT) assay kit produced by Roche was selected for the RT inhibition assay.3 All the reagents for performing the RT reaction came with the kit and the ELSIA procedures for RT inhibition assay was carried out following the description in the kit protocol. Briefly, the reaction mixture containing template/primer complex, viral nucleotides (dNTPs) and RT in the incubation buffer with or without inhibitors was incubated for 1 h at 37 °C . After that, the reaction mixture was transferred to a streptavidine coated microtiter plate and incubated for another 1 h at 37 °C to make sure retranscriptional cDNA chain that consisted biotin labeled dNTPs bound to streptavidine. Then unbound dNTPs were removed using washing buffer and anti-DIG-POD working solution was added. After incubation for 1 h at 37 °C , the DIG-labeled dNTPs incorporated in cDNA were bound to the anti-DIG-POD antibody. The unbound

For another data set, the target named is CYP2C9 (Homo sapiens, UniProt P11712). The data set is described as follows: CYP enzyme inhibition assay in human liver microsome, CYP2C9. The conditions noted are these: read-out: IC50 CYP2C9; human liver microsome, probe substrate diclofenac.
Excerpt: as §11
(§12) Agilent 1200 LC/MSD (Agilent, USA).
A general note: Microsomes from liver hold many membrane-bound enzymes, among them those of drug oxidation.

A further data set addresses CYP2C19 (Homo sapiens, UniProt P33261). The data set is described as follows: CYP enzyme inhibition assay in human liver microsome, CYP2C19. Particulars: read-out: IC50 CYP2C19; human liver microsome, probe substrate S-mephenytoin.
Excerpt: as §11, §12

The target in the next data set is CYP3A4 (Homo sapiens, UniProt P08684). Nature of the data set: in vitro. The conditions noted are these: microsomes.
Excerpt: as §11, §12

Another data set addresses T2, CYP1A2 (Homo sapiens, UniProt P05177).
T2 sequence (P05177 1-516): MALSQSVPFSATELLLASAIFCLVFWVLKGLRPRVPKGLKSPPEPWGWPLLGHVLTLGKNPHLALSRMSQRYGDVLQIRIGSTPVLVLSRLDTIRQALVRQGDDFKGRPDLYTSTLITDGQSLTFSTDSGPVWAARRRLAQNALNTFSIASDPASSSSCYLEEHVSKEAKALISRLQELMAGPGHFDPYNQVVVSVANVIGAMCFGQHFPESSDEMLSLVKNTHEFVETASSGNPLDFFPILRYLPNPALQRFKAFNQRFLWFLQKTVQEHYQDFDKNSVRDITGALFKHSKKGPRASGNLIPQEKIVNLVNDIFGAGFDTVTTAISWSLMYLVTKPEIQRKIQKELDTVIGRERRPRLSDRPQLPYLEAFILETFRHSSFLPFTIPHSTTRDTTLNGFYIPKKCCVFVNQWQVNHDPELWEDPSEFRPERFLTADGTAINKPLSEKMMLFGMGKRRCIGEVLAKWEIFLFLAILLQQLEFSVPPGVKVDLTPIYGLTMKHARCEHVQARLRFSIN
The data set is described as follows: in vitro. The conditions noted are these: microsomes.
Excerpt: as §11, §12

Data set [2] concerns HIV-1 K103N/Y181C double mutant (RES056). Nature of the data set: microbe, parasite or virus in culture. It counts as cell-based. The conditions noted are these: Human immunodeficiency virus 1, MT4, read-out: EC50 RES056. On the procedure:
(§13) The biological results were determined as EC50 (anti-HIV potency), CC50 (cytotoxicity) and SI (selectivity index, the ratio of CC50/EC50). […]
as §6, §7, §8, §9, §10

The test system of another data set is HIV-1 WT (IIIB). Nature of the data set: microbe, parasite or virus in culture. It counts as cell-based. Particulars: Human immunodeficiency virus 1, IIIB, MT4; MT-4 cells, MTT method, mean ± SD, n ≥ 4; read-out: EC50 IIIB. As for the experimental part:
as §13, §6, §7, §8, §9, §10

For data set [3] the following is noted: at pH 7.0; cited from earlier work.

Chain of CYP2D6 (P10635 whole entry): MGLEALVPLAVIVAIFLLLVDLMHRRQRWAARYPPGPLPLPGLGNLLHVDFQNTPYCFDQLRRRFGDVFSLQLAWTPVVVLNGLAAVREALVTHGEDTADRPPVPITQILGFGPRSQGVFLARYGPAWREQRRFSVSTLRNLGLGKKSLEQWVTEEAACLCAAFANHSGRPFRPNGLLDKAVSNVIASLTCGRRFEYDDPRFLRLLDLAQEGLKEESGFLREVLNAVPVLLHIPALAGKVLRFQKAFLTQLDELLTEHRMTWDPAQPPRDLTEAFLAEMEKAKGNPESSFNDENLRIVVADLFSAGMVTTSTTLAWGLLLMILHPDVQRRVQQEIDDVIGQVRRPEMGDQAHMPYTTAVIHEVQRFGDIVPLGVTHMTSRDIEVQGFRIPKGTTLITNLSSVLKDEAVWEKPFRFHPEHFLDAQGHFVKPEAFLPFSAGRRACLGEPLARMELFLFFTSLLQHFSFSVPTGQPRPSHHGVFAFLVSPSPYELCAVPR
Chain of CYP2C19 (P33261 whole entry): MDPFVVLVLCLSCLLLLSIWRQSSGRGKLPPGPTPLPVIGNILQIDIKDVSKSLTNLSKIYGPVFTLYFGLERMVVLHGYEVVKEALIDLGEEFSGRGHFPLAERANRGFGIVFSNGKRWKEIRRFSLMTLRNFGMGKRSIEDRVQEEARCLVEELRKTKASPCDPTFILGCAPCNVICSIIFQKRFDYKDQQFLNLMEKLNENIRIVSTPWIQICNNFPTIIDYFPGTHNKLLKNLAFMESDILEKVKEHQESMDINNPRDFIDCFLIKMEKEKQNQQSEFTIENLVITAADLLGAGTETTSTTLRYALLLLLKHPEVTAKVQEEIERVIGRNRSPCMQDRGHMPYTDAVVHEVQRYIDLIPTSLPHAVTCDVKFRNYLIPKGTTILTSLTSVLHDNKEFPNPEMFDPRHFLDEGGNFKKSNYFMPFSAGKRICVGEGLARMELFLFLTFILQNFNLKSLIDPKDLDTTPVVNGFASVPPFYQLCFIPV
Chain of CYP3A4 (P08684 whole entry): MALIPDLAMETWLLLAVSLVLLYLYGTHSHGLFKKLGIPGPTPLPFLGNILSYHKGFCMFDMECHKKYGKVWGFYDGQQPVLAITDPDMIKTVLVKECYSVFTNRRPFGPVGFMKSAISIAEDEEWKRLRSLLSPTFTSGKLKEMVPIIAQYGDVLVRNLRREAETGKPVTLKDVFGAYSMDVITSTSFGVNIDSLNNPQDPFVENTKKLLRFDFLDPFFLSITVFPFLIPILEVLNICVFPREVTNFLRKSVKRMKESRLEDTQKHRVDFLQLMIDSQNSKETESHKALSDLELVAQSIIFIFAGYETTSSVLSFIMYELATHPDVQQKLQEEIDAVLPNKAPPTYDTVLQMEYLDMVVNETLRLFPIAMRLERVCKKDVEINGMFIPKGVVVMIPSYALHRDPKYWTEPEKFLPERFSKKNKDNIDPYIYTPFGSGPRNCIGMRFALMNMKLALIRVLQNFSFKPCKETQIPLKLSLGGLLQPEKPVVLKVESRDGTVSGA
Chain of CYP2C9 (P11712 whole entry): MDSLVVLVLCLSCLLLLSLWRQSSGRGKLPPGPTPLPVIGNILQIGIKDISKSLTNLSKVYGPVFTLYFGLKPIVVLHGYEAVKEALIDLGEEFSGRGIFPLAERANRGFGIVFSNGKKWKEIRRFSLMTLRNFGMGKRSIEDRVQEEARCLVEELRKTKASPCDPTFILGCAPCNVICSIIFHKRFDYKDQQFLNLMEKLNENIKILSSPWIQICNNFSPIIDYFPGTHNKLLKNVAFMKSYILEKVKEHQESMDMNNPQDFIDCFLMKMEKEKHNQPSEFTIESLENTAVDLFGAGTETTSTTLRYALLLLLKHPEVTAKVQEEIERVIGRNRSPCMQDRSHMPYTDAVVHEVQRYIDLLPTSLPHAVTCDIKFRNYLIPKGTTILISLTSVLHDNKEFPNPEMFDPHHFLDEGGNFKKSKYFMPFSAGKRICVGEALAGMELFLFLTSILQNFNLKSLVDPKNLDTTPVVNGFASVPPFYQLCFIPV

Usually IC50 stands for the concentration at which inhibition is half-maximal. On to `Cc1cc(C#N)cc(C)c1Oc1nc(Nc2ccc(C#N)cc2)nc(N)c1Br` [ETR, etravirine], for which, in [1], the “oral bioavailability (F)” value is given as “undetectable”. Moreover, the EC50 with HIV-1 Y188L amounted to 25 ± 7.6 nM; in the data set on HIV-1 E138K it was 18 ± 7.2 nM; in the data set with HIV-1 Y181C it was 18 ± 3.8 nM; in the data set on HIV-1 F227L/V106A, 25 ± 7.2 nM; in the data set on HIV-1 K103N, 4.3 ± 1 nM; in [2] it was 76 ± 25 nM. The EC50 in the data set on HIV-1 WT (IIIB) came to 3.3 ± 0.38 nM. The IC50 at 10 min against CYP2D6 (human, microsomes, IC50 CYP2D6) is greater than 10000 nM; against CYP3A4, greater than 10000 nM; at CYP1A2, greater than 10000 nM. For the same molecule, the IC50 on CYP2D6 (read-out: IC50 CYP2D6, human liver microsome, probe substrate dextromethorphan) worked out at 12000 nM; against WT HIV-1 RT, 1350 ± 350 nM; on CYP2C9 it was 277 nM; on CYP2C19 it was 496 nM. Besides, in [3], the water solubility was <1^e μg/mL.
